Experiments:
Assay type in all cases: cell-based, human
[1] = system: K562 cells; experiment: Binding of FITC-fibrinogen to glycoprotein IIb/IIIa complexes of differentiated K562 cells (FACS); conditions: K562 cells on OP9 cells, 40 μg/ml, 5 days, activated with 100 nM PMA
Excerpt: Bone marrow progenitor cells, such as K562 cells, have glycoprotein IIb/IIIa complexes expressed thereon at a low level, but the number of complexes increases as the cells increase in size according to differentiation into megakaryocytes. By taking advantage of the fact that fibrinogens, which play a key role in blood clotting, bind to activated glycoprotein IIb/IIIa (GP IIb/IIIa) complex, the differentiation of K562 cells into megakaryocytes by (R)-NALPCE was investigated.
A process similar to that of Experimental Example 8 was conducted. OP9 cells were aliquoted at a density of 1×10^5 cells in 6-well plates and incubated for 24 hrs. After the OP9 cells were uniformly attached onto the bottom of the plates, K562 cells were layered at a density of 1×10^5 cells over the OP9 cells in 6-well plates. The cells were treated with 40 μg/ml of (R)-NALPCE before incubation in a day-dependent manner for 5 days. The (R)-NALPCE-treated K562 cells were transferred to 60 mm-dishes everyday and treated with 100 nM of PMA for 30 min to activate glycoprotein IIb/IIIa complexes. The cells thus differentiated were collected and suspended in 50 μl of PBS. […] Following the addition of […] of PBS, the amount of fibrinogen bound to the surface of the activated K562 cells was quantitatively determined as fluorescence was analyzed on a fluorescence-activated cell sorter (FACS) (Aria) using a Cellquest program.

[2] = system: HEL cells; experiment: Cell differentiation of HEL cells, optical microscopy; conditions: 5 μg/ml (R)-NALPCE, 10 nmole PMA or 50 ng/ml TPO, 5 days
Procedure: HEL cells were aliquoted at a density of 3×10^5 cells per well in 6-well plates and treated with 5 μg/ml of (R)-NALPCE, 10 nmole of PMA, or 50 ng/ml of TPO, followed by incubation in a day-dependent manner for 5 days. They were observed under an optical microscope with 200× magnification.

[3] = system: K562 cells; experiment: Differentiation inductivity, lineage receptor expression by FACS, K562 cells; conditions: K562 cells, 40 μg/ml (R)-NALPCE or 30 nM PMA, 4 days
Procedure: K562 cells were aliquoted at a density of 2×10^5 per well in 6-well plates and treated with 40 μg/ml of (R)-NALPCE or 30 nM of PMA (12-phorbol myristate-13-acetate, Calbiochem.), followed by incubation for 4 days. After centrifugation (1,000 rpm, 10 min), the cell pellets thus obtained were washed three times with 0.01% bovine serum albumin (BSA) in PBS. The cells were incubated with 10 μl of anti-CD41-fluorescein-5-isothiocyanate (FITC) (Dako Chemicals, Carpenteria, Calif.), 20 μl of anti-CD16-Cy-Chrome (Cy) (BD Pharmingen), 10 μl of anti-glycophorin ACD235a-phycoerythrin (PE) (Dako Chemicals, Carpenteria, Calif.), and 20 μl of anti-CD14-allophycocyanin (APC) (BD Pharmingen) in 200 μl of 0.01% bovine serum albumin (BSA)-PBS at 4° C. for 50 min while spinning to realize homogeneous fluorescent staining. After centrifugation (1,000 rpm, 10 min), the cell pellets thus obtained were washed three times with 0.01% bovine serum albumin (BSA) in PBS. Fluorescence was analyzed on a fluorescence-activated cell sorter (FACS) (Aria) using a Cellquest program.

## CCCCCCCCCCCCCCCCCC(=O)NC(COP(=O)([O-])OCC[N+](C)(C)C)C(=O)OC [(R)-NALPCE, N-steroyl-O-phosphocholine-D-serine methyl ester]
[1]
  fluorescence of fibrinogens bound to glycoprotein IIb/IIIa complexes: increase in a day-dependent manner
[2]
  cell morphology (optical microscope): increase in size in a day-dependent manner
[3]
  expression of CD41, CD16, glycophorin A and CD14 receptors: CD41 and CD16 were specifically expressed

— patent US20080268535A1, “Method for Inducing the Differentiation of Human Myelogenous Leukemia Cells Into Megakarocytes or Thrombocytes” (EWHA University - Industry Collaboration Foundation, priority 2005, published 2008)
